From patent US8735623B2, “Process for preparing creatine amides” (priority 2009, dated 2014)
Like-named read-outs stand apart in the source and are kept apart here.

Legend:
[1] = system: rat model of focal ischemia; settings: score 18 max, 3 min
Procedure: Cerebral ischemia was induced by the method mentioned above. A solution of amides of creatine or saline was administered intravenous. […] Testing the animals was carried out before ischemia, on a second and third days after ischemia-reperfusion at a fixed time for exclusion of behavioral changes by means of circadian rhythm. Spontaneous activity, symmetrical limb movement, climbing onto vertical reticulated wall, body proprioreception, touching to vibriss were assessed. A maximum point by assigned score was 18 (lack of neurological deficit), minimum—3 (severe neurological deficit).

[2] = system: rat model of focal ischemia; settings: 30 min ischemia, 48 hour reperfusion, male Wistar rat
Procedure: Research of the neuroprotective action of amides of creatine was carried out in a rat model of focal ischemia (male, Wistar, 12÷14 weeks, 220÷240 g). Anesthesia was performed by sodium thiopental 60 mg/kg. A solution of amides of creatine in saline was administered intravenous to the first group of animals 45 min before ischemia, saline was administered to a control group, a solution of amides of creatine in saline was administered intragastric per os by an enteral tube a day before ischemia to the second group of animals 3 times per day, saline was administered to a control group.
Standard time of ischemia constituted 30 min, standard time of reperfusion constituted 48 hour. The animals were sacrificed, brain slices with thickness of 2 mm were produced for assessing a brain damage volume. The damage area was determined by staining with […] followed by data acquisition and analysis of stained slice digital images. A brain damage coefficient, i.e. a relation of damage area to the slice surface was calculated (Table 1).

[3] = 37° C.
Procedure: Stability of amides of creatine in human plasma was assessed by relative change in concentration of amides of creatine in plasma. 1 mL of plasma was mixed with 0.2 mL of amides of creatine aqueous solution with concentration 5 mg/mL, a mixture was kept at a temperature of 37° C., aliquot of volume 0.2 mL was drawn in fixed time ranges, mixed with 0.02 mL of trifluoroacetic acid 10% solution, a precipitate was centrifuged at […] for 20 min. A concentration of amides of creatine in supernatant was determined by HPLC method (Table 4).

[4] = Stability in artificial gastric secretion (HPLC); settings: 37° C.
Procedure: 10 mg of amides of creatine was dissolved in 20 mL of artificial gastric secretion for study of amides of creatine stability, solution aliquot was place into vial for chromatograph. Vial with solution was place into chromatograph autosampler at 37° C. Initial concentration of amides of creatine and its relative change in gastric secretion were determined by HPLC at indicated temperature (Table 3).

[5] = 20-30 g per day for a few days; cited from earlier work
[6] = in vivo; cited from earlier work
[7] = i./v., 150 mg/kg, 45 min before ischemia
[8] = per os, 3 × 150 mg/kg, a day before ischemia

Structure (SMILES) | Stability in human plasma ([3]; 0 hour) [%] | Stability in human plasma ([3]; 0.25 hour) [%] | Stability in human plasma ([3]; 0.5 hours) [%] | Stability in human plasma ([3]; 1 hour) [%] | Stability in gastric secretion ([4]; 0 hour) [%] | Stability in gastric secretion ([4]; 1 hour) [%] | Stability in gastric secretion ([4]; 3 hours) [%] | Stability in gastric secretion ([4]; 5 hours) [%] | further results
CC(=O)O.CC(C)OC(=O)CNC(=O)CN(C)C(=N)N [Agent 1, Creatinyl-Glycine iso-Propyl Ester Acetate] | 100 | 100 | 99 | 91 | 100 | 100 | 99 | 97 | Neurological condition by Garcia score, 2nd day after ischemia ([1]; 150 mg/kg intravenous): 10 ± 2; Neurological condition by Garcia score, 3rd day after ischemia ([1]; 150 mg/kg intravenous): 15 ± 2; Neurological condition by Garcia score, 1 day before ischemia ([1]; 150 mg/kg intravenous): 18 ± 0; Brain damage coefficient [2, 7]: 11.2 ± 2.3%; Brain damage coefficient [2, 8]: 14.2 ± 3.0%
CC(=O)O.CCOC(=O)CNC(=O)CNC(=O)CN(C)C(=N)N [Agent 2, Creatinyl-Glycyl-Glycine Ethyl Ester Acetate] | 100 | 100 | 97 | 90 | 100 | 100 | 98 | 98 | Brain damage coefficient ([2]; i./v., 200 mg/kg, 45 min before ischemia): 12.1 ± 2.0%
CCNC(=O)CNC(=O)CN(C)C(=N)N.O=C(O)C(O)C(O)C(=O)O [Agent 3, Creatinyl-Glycine Ethylamide Tartrate] | 100 | 100 | 95 | 90 | 100 | 100 | 97 | 98 | Neurological condition by Garcia score, 2nd day after ischemia ([1]; 150 mg/kg intravenous): 11 ± 2; Neurological condition by Garcia score, 3rd day after ischemia ([1]; 150 mg/kg intravenous): 16 ± 1; Neurological condition by Garcia score, 1 day before ischemia ([1]; 150 mg/kg intravenous): 18 ± 0; Brain damage coefficient [2, 7]: 12.0 ± 1.7%; Brain damage coefficient [2, 8]: 13.9 ± 3.3%
CC(=O)O.CC(=O)O.CCOC(=O)[C@@H](N)CCCCNC(=O)CN(C)C(=N)N [Agent 4, N^ε-Creatinyl-Lysine Ethyl Ester Diacetate] | 100 | 100 | 100 | 89 | 100 | 100 | 98 | 97 | Neurological condition by Garcia score, 2nd day after ischemia ([1]; 100 mg/kg intravenous): 14 ± 1; Neurological condition by Garcia score, 3rd day after ischemia ([1]; 100 mg/kg intravenous): 17 ± 2; Neurological condition by Garcia score, 1 day before ischemia ([1]; 100 mg/kg intravenous): 18 ± 0; Brain damage coefficient ([2]; i./v., 100 mg/kg, 45 min before ischemia): 13.3 ± 3.2%; Brain damage coefficient ([2]; per os, 3 × 100 mg/kg, a day before ischemia): 15.2 ± 2.9%
CCNC(=O)C(Cc1ccccc1)NC(=O)CN(C)C(=N)N.Cl (stereo not shown) [Agent 5, Creatinyl-Phenylalanine Ethylamide Hydrochloride] | 100 | 100 | 97 | 87 | 100 | 100 | 98 | 99 | Neurological condition by Garcia score, 2nd day after ischemia ([1]; 50 mg/kg intravenous): 11 ± 1; Neurological condition by Garcia score, 3rd day after ischemia ([1]; 50 mg/kg intravenous): 14 ± 1; Neurological condition by Garcia score, 1 day before ischemia ([1]; 50 mg/kg intravenous): 18 ± 0; Brain damage coefficient ([2]; i./v., 50 mg/kg, 45 min before ischemia): 14.0 ± 1.1%
CC(=O)O.CCOC(=O)CCCNC(=O)CN(C)C(=N)N [Agent 6, Creatinyl-γ-Aminobutyric acid Ethyl Ester acetate] | – | – | – | – | 100 | 100 | 99 | 99 | Neurological condition by Garcia score, 2nd day after ischemia ([1]; 45 mg/kg intravenous): 14 ± 0; Neurological condition by Garcia score, 3rd day after ischemia ([1]; 45 mg/kg intravenous): 16.0 ± 1.1; Neurological condition by Garcia score, 1 day before ischemia ([1]; 45 mg/kg intravenous): 18 ± 0; Brain damage coefficient ([2]; i./v., 45 mg/kg, 45 min before ischemia): 13.1 ± 1.0%
CN(CC(=O)O)C(=N)N.O [creatine monohydrate] | – | – | – | – | – | – | – | – | Increasing of total creatine content in human skeletal muscles [5]: more than 20%
CN(CC(=O)O)C(=N)N [creatine, Creatine] | – | – | – | – | – | – | – | – | Extent of absorbtion from gastro-intestinal tract [6]: 1 to 14%
